# Experimental data as given in patent US9156796B2, “Benzoimidazole-carboxylic acid amide derivatives as APJ receptor modulators” (SANOFI, priority 2013, dated 2015).
# pEC50: −log10 of the molar value.
# Target: T1, human apelin receptor (Homo sapiens, UniProt P35414)
# T1 construct: expressed in transfected cells
# T1 sequence (P35414 1-380): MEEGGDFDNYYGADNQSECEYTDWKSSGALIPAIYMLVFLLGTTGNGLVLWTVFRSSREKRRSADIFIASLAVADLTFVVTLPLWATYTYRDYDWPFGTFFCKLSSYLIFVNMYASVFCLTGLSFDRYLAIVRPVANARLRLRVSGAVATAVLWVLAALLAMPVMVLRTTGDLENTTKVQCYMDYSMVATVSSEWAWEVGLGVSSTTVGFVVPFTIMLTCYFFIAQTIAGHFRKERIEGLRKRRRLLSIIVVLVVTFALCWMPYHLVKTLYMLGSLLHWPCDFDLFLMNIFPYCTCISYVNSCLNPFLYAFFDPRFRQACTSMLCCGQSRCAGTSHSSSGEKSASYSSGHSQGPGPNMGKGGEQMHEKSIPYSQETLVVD
# Test: Determination of agonism on the human apelin receptor by a calcium fluorescence assay (FLIPR)
# Format: cell-based
# Conditions: HEK293 cells stably transfected with human apelin receptor and Giaq protein, Fluo-4 calcium fluorescence, read-out: EC50 (APJ agonism)
# Method in brief: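 Agonist EC50s come from peak intracellular calcium transients recorded by FLIPR Tetra, scaled to the 1 μM apelin-13 maximum per plate. Test system: HEK293 stably transfected with human apelin receptor plus Giaq, Fluo-4-loaded (4 μM, 1 h, 37 °C, pH 7.4 buffer with probenecid); ≥7 concentrations, triplicates.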
row,pEC50,Structure (SMILES)
1,5.69,"CC(C)C[C@H](NC(=O)c1ccc2c(c1)nc(Cc1cccs1)n2C1CCCC1)C(=O)O [Example 110, (S)-2-[(1-Cyclopentyl-2-thiophen-2-ylmethyl-1H-benzoimidazole-5-carbonyl)-amino]-4-methyl-pentanoic acid]"
2,6.24,"CC(C)C[C@H](NC(=O)c1ccc2c(c1)nc(Cc1cccs1)n2C1CCCCCC1)C(=O)O [Example 111, (S)-2-[(1-Cycloheptyl-2-thiophen-2-ylmethyl-1H-benzoimidazole-5-carbonyl)-amino]-4-methyl-pentanoic acid]"
3,4.89,"CC(C)C[C@H](NC(=O)c1ccc2c(c1)nc(CC1CCCC1)n2C1CCCCC1)C(=O)O [Example 112, (S)-2-[(1-Cyclohexyl-2-cyclopentylmethyl-1H-benzoimidazole-5-carbonyl)-amino]-4-methyl-pentanoic acid]"
4,4.66,"CCC(C)Cn1c(Cc2cccs2)nc2cc(C(=O)N[C@@H](CC(C)C)C(=O)O)ccc21 (stereo partly drawn) [Example 113, (S)-4-Methyl-2-{[1-(2-methyl-butyl)-2-thiophen-2-ylmethyl-1H-benzoimidazole-5-carbonyl]-amino}-pentanoic acid]"
5,6.73,"CCC(CC)n1c(Cc2cccs2)nc2cc(C(=O)N[C@@H](CC(C)C)C(=O)O)ccc21 [Example 114, (S)-2-{[1-(1-Ethyl-propyl)-2-thiophen-2-ylmethyl-1H-benzoimidazole-5-carbonyl]-amino}-4-methyl-pentanoic acid]"
6,4.46,"Cc1ccc(-n2c(Cc3cccs3)nc3cc(C(=O)N[C@@H](CC(C)C)C(=O)O)ccc32)cc1 [Example 115, (S)-4-Methyl-2-[(2-thiophen-2-ylmethyl-1-p-tolyl-1H-benzoimidazole-5-carbonyl)-amino]-pentanoic acid]"
7,5.17,"CCC(CC)n1c(Cc2ccccc2)nc2cc(C(=O)N[C@@H](CC(C)C)C(=O)O)ccc21 [Example 116, (S)-2-{[2-Benzyl-1-(1-ethyl-propyl)-1H-benzoimidazole-5-carbonyl]-amino}-4-methyl-pentanoic acid]"
8,6.38,"CCC(CC)n1c(Cc2ccsc2)nc2cc(C(=O)N[C@@H](CC(C)C)C(=O)O)ccc21 [Example 117, (S)-2-{[1-(1-Ethyl-propyl)-2-thiophen-3-ylmethyl-1H-benzoimidazole-5-carbonyl]-amino}-4-methyl-pentanoic acid]"
9,6.65,"CCC(CC)n1c(Cc2ccoc2)nc2cc(C(=O)N[C@@H](CC(C)C)C(=O)O)ccc21 [Example 118, (S)-2-{[1-(1-Ethyl-propyl)-2-furan-3-ylmethyl-1H-benzoimidazole-5-carbonyl]-amino}-4-methyl-pentanoic acid]"
10,4.48,"CCC(CC)n1c(Cc2ccc(C)s2)nc2cc(C(=O)N[C@@H](CC(C)C)C(=O)O)ccc21 [Example 119, (S)-2-{[1-(1-Ethyl-propyl)-2-(5-methyl-thiophen-2-ylmethyl)-1H-benzoimidazole-5-carbonyl]-amino}-4-methyl-pentanoic acid]"
11,4.62,"CCC(CC)n1c(CC2CCCCC2)nc2cc(C(=O)N[C@@H](CC(C)C)C(=O)O)ccc21 [Example 120, (S)-2-{[2-Cyclohexylmethyl-1-(1-ethyl-propyl)-1H-benzoimidazole-5-carbonyl]-amino}-4-methyl-pentanoic acid]"
12,7.13,"CCC(C)[C@H](NC(=O)c1ccc2c(c1)nc(Cc1cccs1)n2C(CC)CC)C(=O)O (stereo partly drawn) [Example 121, (S)-2-{[1-(1-Ethyl-propyl)-2-thiophen-2-ylmethyl-1H-benzoimidazole-5-carbonyl]-amino}-3-methyl-pentanoic acid]"
13,5.36,"CCC(CC)n1c(Cc2cccs2)nc2cc(C(=O)N[C@H](C(=O)O)C(C)C)ccc21 [Example 122, (S)-2-{[1-(1-Ethyl-propyl)-2-thiophen-2-ylmethyl-1H-benzoimidazole-5-carbonyl]-amino}-3-methyl-butyric acid]"
14,5.73,"CCC(CC)n1c(Cc2cccs2)nc2cc(C(=O)N[C@@H](CCSC)C(=O)O)ccc21 [Example 123, (S)-2-{[1-(1-Ethyl-propyl)-2-thiophen-2-ylmethyl-1H-benzoimidazole-5-carbonyl]-amino}-4-methylsulfanyl-butyric acid]"
15,5.03,"CCC(CC)n1c(Cc2cccs2)nc2cc(C(=O)N[C@@H](Cc3ccccc3)C(=O)O)ccc21 [Example 124, (S)-2-{[1-(1-Ethyl-propyl)-2-thiophen-2-ylmethyl-1H-benzoimidazole-5-carbonyl]-amino}-3-phenyl-propionic acid]"
16,7.11,"CCC(CC)n1c(Cc2cccs2)nc2cc(C(=O)N[C@@H](CC3CCCCC3)C(=O)O)ccc21 [Example 125, (S)-3-Cyclohexyl-2-{[1-(1-ethyl-propyl)-2-thiophen-2-ylmethyl-1H-benzoimidazole-5-carbonyl]-amino}-propionic acid]"
17,5.41,"CCC(CC)n1c(Cc2cccs2)nc2cc(C(=O)NC(CC(C)(C)C)C(=O)O)ccc21 (stereo not shown) [Example 126, 2-{[1-(1-Ethyl-propyl)-2-thiophen-2-ylmethyl-1H-benzoimidazole-5-carbonyl]-amino}-4,4-dimethyl-pentanoic acid]"
18,4.82,"CC(C)C[C@H](NC(=O)c1ccc2c(c1)nc(Cc1cccs1)n2CC(C)C)C(=O)O [Example 127, (S)-2-[(1-Isobutyl-2-thiophen-2-ylmethyl-1H-benzoimidazole-5-carbonyl)-amino]-4-methyl-pentanoic acid]"
19,5.00,"CC(C)C[C@H](NC(=O)c1ccc2c(c1)nc(CC1CCCC1)n2CC(C)C)C(=O)O [Example 128, (S)-2-[(2-Cyclopentylmethyl-1-isobutyl-1H-benzoimidazole-5-carbonyl)-amino]-4-methyl-pentanoic acid]"
20,5.57,"CCC(CC)n1c(CC2CCCC2)nc2cc(C(=O)N[C@@H](CC(C)C)C(=O)O)ccc21 [Example 129, (S)-2-{[2-Cyclopentylmethyl-1-(1-ethyl-propyl)-1H-benzoimidazole-5-carbonyl]-amino}-4-methyl-pentanoic acid]"
21,6.53,"CCC(CC)n1c(Cc2cccs2)nc2cc(C(=O)N[C@@H](CCC(C)C)C(=O)O)ccc21 [Example 130, (S)-2-{[1-(1-Ethyl-propyl)-2-thiophen-2-ylmethyl-1H-benzoimidazole-5-carbonyl]-amino}-5-methyl-hexanoic acid]"
22,6.73,"CC(C)C[C@H](NC(=O)c1ccc2c(c1)nc(Cc1ccoc1)n2C1CCCCC1C)C(=O)O (stereo partly drawn) [Example 131, (S)-2-{[2-Furan-3-ylmethyl-1-(2-methyl-cyclohexyl)-1H-benzoimidazole-5-carbonyl]-amino}-4-methyl-pentanoic acid]"
23,6.15,"CC(C)C[C@H](NC(=O)c1ccc2c(c1)nc(Cc1cccs1)n2-c1ccccc1)C(=O)O [Example 132, (S)-4-Methyl-2-[(1-phenyl-2-thiophen-2-ylmethyl-1H-benzoimidazole-5-carbonyl)-amino]-pentanoic acid]"
24,5.63,"CCC(C)Cn1c(CC2CCCCC2)nc2cc(C(=O)N[C@@H](CC3CCCCC3)C(=O)O)ccc21 (stereo partly drawn) [Example 133, (S)-3-Cyclohexyl-2-{[2-cyclohexylmethyl-1-(2-methyl-butyl)-1H-benzoimidazole-5-carbonyl]-amino}-propionic acid]"
25,5.15,"CC(C)Cn1c(CC2CCCCC2)nc2cc(C(=O)N[C@@H](CC3CCCCC3)C(=O)O)ccc21 [Example 134, (S)-3-Cyclohexyl-2-[(2-cyclohexylmethyl-1-isobutyl-1H-benzoimidazole-5-carbonyl)-amino]-propionic acid]"
